Series [1] in a line: Viability of HL-60 cells after 3 days, XTT method. The class given is cell-based, human. The following applies: human, HL-60 cells. The source says: (§1) Secondly, the effect of compounds of the invention may be compared to the natural inhibitor of Syk, piceatannol.
In general terms: Tetrazolium assays rely on reduction of a dye to a coloured formazan, in cell work by metabolically active cells.

The subject of series [2] is HL-60 cells. In words: Apoptosis of HL-60 cells after 2 days. The class given is cell-based, human.
Description: as §1

Series [3] has as its system HL-60 cells. In words: Viability of HL-60 cells after 3 days, XTT method. It is filed as cell-based, human.
Description: as §1

Series [4] deals with Jurkat cells. Briefly: Jurkat cell survival after a seven day period (Syk-containing). The note with it: 50 μg/ml; seven days; FIG. 4. The class given is cell-based. Here is the method: FIG. 4 illustrates the effect of AV 61S and AV 74S on Jurkat cell survival after a seven day period;
(§2) The jurkat E6.1 line is a Syk-deficient line; in fact, AV 61S after 7 days has no effect on this cell line (i.e., neither apoptosis nor inhibition, see […]). […] The viability study has been performed after 24 and 48 hours of incubation, each time for 3 evaluations; within 1, 3 and 6 hours.

The test system of series [5] is E6.1 Jurkat cells. Briefly: E6.1 Jurkat (Syk-deficient) cell survival and viability. The class given is cell-based. Here is the method:
FIG. 18 illustrates, in comparison with cyclosporin-treated Jurkat cells, the viability of E6.1 Jurkat cells treated with differing concentrations of AV 61S or AV 74S after 24 hours; and
FIG. 19 illustrates, in comparison with cyclosporin-treated Jurkat cells, the viability of E6.1 Jurkat cells treated with differing concentrations of AV 61S or AV 74S after 48 hours.
as §2

For series [6], the system named is PHA-activated PBMCs. Briefly: Inhibition of PHA-activated PBMCs (lymphocyte proliferation, thymidine incorporation). The class given is cell-based, human. The following applies: varying concentrations. On the technique in general: Dividing cells build labelled thymidine or BrdU into new DNA.
Series [7] deals with human PBMC monocytes. Briefly: Effect on human PBMC monocytes. The class given is cell-based. The following applies: FIGS. 11 and 12. The text has this: FIG. 12 illustrates the effect of AV 74S treatment on monocytes;
FIGS. 11 and 12 compare the effect of compounds of the invention—AV 61S and AV 74S—on human PBMC T and B cells (FIG. 11) versus human PBMC monocytes (FIG. 12). […] T cells contain ZAP-70, rather than Syk, but B lymphocytes do contain Syk. […] As such, the effect seen on the B and T cells is believed to be due to the activity on the B cells, not the T cells.

“Also recorded” adds a separate entry of the source.

2 compounds from US20090306214A1, “Use of Syk Tyrosine Kinase Inhibitors for the Treatment of Cell Proliferative Disorders” (priority 2006, published 2009) can be followed below.

Broadly, the viability is the share of living cells, or the viability signal relative to a control. Higher therefore signals better survival. In turn, `Oc1cc(O)cc(/C=C/c2ccc(O)c(O)c2)c1` [piceatannol, reference compound] displayed a viability at 3 days, 10 μM in series [1] (Pic 10 μM alone) of 89%. Also, the viability at 3 days, 30 μM in series [1] (Pic 30 μM alone) was 79%. For the same compound, the “Apoptosis of HL-60 cells” value amounted to 20% in series [2] (Pic. 10 μM alone) and 33% in series [2] (Pic. 30 μM alone).
On to `CC(CO)OCC(C)OCC(C)OCC(C)OCC(C)OCC(C)OCC(C)OC[C@H](Cc1ccccc1)NC(=O)CCc1ccc(O)cc1` (stereo partly shown) [AV 61S], for which the “viability of HL-60 cells” value is reported as 97 % of control in series [3] (50 μg/ml + Pic 10 μM); 83 % of control in series [3] (50 μg/ml + Pic 30 μM); 81 % of control in series [3] (50 μg/ml, no piceatannol); 59 % of control in series [3] (100 μg/ml + Pic 10 μM); 23 % of control in series [3] (100 μg/ml + Pic 30 μM); 36 % of control in series [3] (100 μg/ml, no piceatannol). Besides, the “killing of Syk-containing Jurkat cells” value in series [4] is approximately 100%. For the same compound, the “viability of E6.1 Jurkat cells” value in series [5] (24 and 48 hours of incubation, FIGS. 18 and 19) is “do not kill them”. Further, the “effect on Syk-deficient Jurkat E6.1 cell survival” value in series [5] (after 7 days, FIG. 3) is recorded as “no effect; also recorded: lack of effect”. In addition, the “inhibitory effect on PHA-activated PBMCs” value in series [6] (DMSO carrier, FIG. 1) is reported as “inhibitory effect”; in series [6] (PBS carrier, FIG. 2) it was “lesser inhibitory effect”. The “effect on monocytes as compared to T and B cells” value in series [7] is recorded as “more profound on monocytes”.
